Results published in US20240293472A1, “Bee Product Extracts, Methods of Production, and Uses Thereof” (Quantum Technologies Limited, priority 2020, published 2024).

Biological target: T1, HDAC1 (Homo sapiens, UniProt Q13547)
T1 construct: purchased Huntingtree Associates Ltd
Assay: Epigenase HDAC Activity/Inhibition Direct Assay Kit (Colorimetric)
Assay type: biochemical
Conditions: FIG. 20

T1 sequence (Q13547 whole entry): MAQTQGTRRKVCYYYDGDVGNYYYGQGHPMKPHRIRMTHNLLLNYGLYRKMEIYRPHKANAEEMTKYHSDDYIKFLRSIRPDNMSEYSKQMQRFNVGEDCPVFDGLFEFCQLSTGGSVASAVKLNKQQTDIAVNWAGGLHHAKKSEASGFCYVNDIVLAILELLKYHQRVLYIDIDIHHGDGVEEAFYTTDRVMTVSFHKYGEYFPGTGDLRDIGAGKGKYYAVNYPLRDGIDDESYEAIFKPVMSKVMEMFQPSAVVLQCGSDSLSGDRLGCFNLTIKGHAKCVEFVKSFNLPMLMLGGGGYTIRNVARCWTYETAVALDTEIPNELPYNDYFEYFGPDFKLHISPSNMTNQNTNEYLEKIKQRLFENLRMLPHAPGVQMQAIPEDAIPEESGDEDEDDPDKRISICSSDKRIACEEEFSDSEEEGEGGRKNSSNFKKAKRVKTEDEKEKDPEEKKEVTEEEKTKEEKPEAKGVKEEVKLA

SMILES: CC(=O)C=O [MGO, Methylglyoxal]
- HDAC inhibition: dose response inhibition
